Data published in article PMC8752549, “Esc peptides as novel potentiators of defective cystic fibrosis transmembrane conductance regulator: an unprecedented property of antimicrobial peptides” (Cellular and Molecular Life Sciences: CMLS, 2021).
Where no end group is shown, it is not given here. [ ]: non-standard residue; d: D form.

Assays:
[1] = system: null-FRT cells not expressing CFTR; assay: Whole-cell patch-clamp, null-FRT cells; assay type: cell-based, Fischer rat; details: untransfected FRT, 20 µM FSK + 10 µM Esc peptides or GEN, n ≥ 3
Description: For whole-cell experiments the extracellular (bath) solution contained (in mM): 150 NaCl, 1 CaCl2, 1 MgCl2, 10 glucose, 10 mannitol, 10 Na-HEPES (pH 7.4). The pipette (intracellular) solution contained (in mM): 120 CsCl, 10 TEA-Cl, 0.5 EGTA, 1 MgCl2, 10 Cs-HEPES, 40 mannitol, 1 ATP. To activate CFTR, 20 µM FSK was added to the extracellular solution to phosphorylate the channel. In some samples the combination FSK + 50 µM GEN (positive control) as well as FSK + 10 µM peptides were added to the extracellular solution to test their potentiator activity.
For both patch configurations, the protocol to correlate current intensity and voltage for stimulation consisted of 500-ms voltage steps from -100 to + 100 mV or from -80 to + 120 mV in 20 mV increments, starting from a holding potential of -60 mV. The time-dependence of CFTR activation and inactivation was monitored by application of steps of 50 ms pulses to − 100, − 50, 0, 50 and 100 mV every 5 s from a holding potential of − 60 mV. The interval between steps was 4 s. Membrane currents were filtered at 1 kHz and digitized at 5 kHz by a low–pass 4–pole Bessel filter. […]
Whole-cell membrane currents were recorded in null FRT cells not expressing CFTR by using the same experimental solutions and stimulation protocols as described in the main text for F508del- FRT.

[2] = ivacaftor-based treatment of patients; cited from earlier work
Excerpt: Many proof-of-concept studies have disclosed that chemically modified ATP analogs and small organic molecules (e.g., isoflavones) have good potentiation effect by enhancing CFTR channel gating. However, the expected unspecific binding of ATP analogs to other proteins implicated in physiological functions limits the development of these molecules to the clinic. Other compounds capable of improving the activity of mutant CFTR can promote its phosphorylation by inhibiting phosphodiesterase’s activity, to heighten the intracellular level of cAMP. Ivacaftor was the first CFTR potentiator approved f ...

[3] = system: F508del-CFTR; assay: CFTR-mediated transepithelial conductance (TEER), F508del-FRT; assay type: cell-based; details: F508del-FRT pre-incubated 24 h with 1 µM VX-809; 10 µM peptide + 20 µM FSK, 10 min; inhibition with 30 µM PPQ102; n ≥ 6
Description: To evaluate CFTR activation, the same saline solution was used. Cells expressing F508del mutation were incubated with 1 µM VX-809 to favor the mutant protein rescue. After measurement of basal TEER, 20 µM FSK + 10 µM GEN as positive control, or FSK + peptides at the desired concentration were added on the epithelium apical side. Finally, 30 µM PPQ102 was added on the epithelium apical side to block CFTR, so to measure the own activity of CFTR. TEER measurement was performed at 37 °C after 10 min from the addition of each compound. From the values of TEER measured before and after CFTR inhibition, we calculated the CFTR-dependent TEER for each condition. All values of TEER were converted to transepithelial conductance (TEEC) using the formula TEEC = 1/TEER [67].

[4] = system: P. aeruginosa pulmonary infection; details: cited from earlier work
Excerpt: (§1) During the last years, several studies have been conducted to identify compounds with suitable antibacterial properties. Antimicrobial peptides (AMPs) are a promising and effective therapeutic resource. Indeed, they rapidly kill microbial pathogens by perturbing their plasma-membrane thus limiting the induction of bacterial resistance compared to conventional antibiotics. In our laboratory, we identified a frog-skin derived membrane-active cationic AMP, i.e., Esc(1–21) […]-NH2 [24], with biocidal activity against the planktonic and the biofilm forms of P ...

[5] = cited from earlier work
Excerpt: as §1

[6] = system: wt-CFBE and F508del-CFBE; details: monolayers of wt-CFBE and F508del-CFBE; cited from earlier work
Excerpt: as §1

[7] = system: F508del-CFBE41o- and wt-CFBE41o- cells; assay type: cell-based
Description: (§2) To evaluate the lung epithelia integrity, FRT and CFBE41o- cells expressing mutated or functional CFTR were seeded on permeable supports (24 Millicell plates PSHT01QR1) and incubated for 24 h in their standard culture medium in the presence of peptides, at different concentration. DMSO, 0.1% v:v, final concentration) that was used to solubilize each compound was included as control. After 24 h, the medium was replaced with saline solution containing (in mM): 130 NaCl, 2.7 KCl, 1.5 KH2PO4, 1 CaCl2, 0.5 MgCl2, 10 glucose, 10 Na-Hepes (pH, 7.4). Saline solution was added to both apical and basolateral compartments of the permeable supports. Samples were incubated for 10 min at 37 °C and TEER was measured in basal conditions without CFTR activation, with the epithelial voltmeter (MILLICELL ERS-2, Millipore Burlington, MA).

[8] = system: F508del-FRT and wt-FRT cells; assay type: cell-based, Fischer rat
Description: as §2

[9] = system: F508del-CFTR; assay: Inside-out patch-clamp (macro-patches), F508del-FRT cells; assay type: biochemical; details: 1 mM ATP + 125 nM PKA catalytic subunit + 10 µM peptide in intracellular bath, n ≥ 3
Description: Whole-cell and inside-out membrane currents were recorded in FRT cells stably expressing F508del CFTR after incubation with 1 µM of the corrector VX-809 for 24 h to increase mutated CFTR membrane expression.
For inside-out patch-clamp experiments, the pipette solution contained (in mM): 150 N-methyl-D-glucamine chloride (NMDG-Cl), 3 CaCl2, 2 MgCl2, 10 Na-Hepes (pH 7.3). The bath solution for these experiments contained (in mM): 150 NMDG-Cl, 2 MgCl2, 10 EGTA, 10 Na-Hepes, 1 ATP, which was supplemented with 125 nM catalytic subunit of PKA (Promega, […]) and peptides at 10 µM. Pipette electrical resistance for both whole-cell and inside-out experiments was 3–5 MΩ.
For both patch configurations, the protocol to correlate current intensity and voltage for stimulation consisted of 500-ms voltage steps from -100 to + 100 mV or from -80 to + 120 mV in 20 mV increments, starting from a holding potential of -60 mV. The time-dependence of CFTR activation and inactivation was monitored by application of steps of 50 ms pulses to − 100, − 50, 0, 50 and 100 mV every 5 s from a holding potential of − 60 mV. The interval between steps was 4 s. Membrane currents were filtered at 1 kHz and digitized at 5 kHz by a low–pass 4–pole Bessel filter.

With `O=c1c(-c2ccc(O)cc2)coc2cc(O)cc(O)c12` [GEN, genistein] the “change of ion current” value [1] was “no significant change”.
For `CC(C)(C)c1cc(C(C)(C)C)c(NC(=O)c2c[nH]c3ccccc3c2=O)cc1O` [VX-770, ivacaftor], the enhanced lung function [2] is given as 10%.
For “GIFSKLAGKKIKN[dL]LI[dS]GLKG-NH2 [Esc(1–21)-1c, diastereomer of Esc(1–21) carrying D-Leu14 and D-Ser17]”, the “CFTR-mediated conductance (ΔG) compared to FSK-treated samples” value [3] is listed as “slightly more pronounced”, the “toxicity or inflammatory side events” value [4] is listed as “without eliciting toxicity or inflammatory side events” and the “effectiveness in contrasting P. aeruginosa pulmonary infection” value ([4]; mice) is listed as “higher effectiveness than the all-L counterpart”. The “susceptibility to proteolytic degradation compared with Esc(1–21)” value [5] was “less susceptible”, the “promotion of re-epithelialization compared with Esc(1–21)” value [6] was “more efficient” and the “change of TEER / transepithelial conductance (G) versus DMSO control” value [7] was “do not alter”. The “change of TEER / transepithelial conductance (G) versus DMSO control” value [8] was “do not alter”.
In the case of “Gly-Ile-Phe-Ser-Lys-Leu-Ala-Gly-Lys-Lys-Ile-Lys-Asn- DLeu -Leu-Ile-DphosphoSer-Gly-Leu-Lys-Gly-NH2 [[DLeu^14, DphosphoSer^17]Esc, Esc analog with DLeu14 and D-phosphoSer at position 17]”, the “CFTR-mediated conductance (ΔG) compared to FSK-treated samples” value [3] is reported as “about twofold” and the “current intensity at + 100 mV compared to control basal conditions” value [9] is reported as ~ 2.5 fold.
In the case of “Gly-Ile-Phe-Ser-Lys-Leu-Ala-Gly-Lys-Lys-Ile-Lys-Asn-Leu-Leu-Ile-Ser-Gly-Leu-Lys-Gly- NH2 [Esc(1–21)]”, the “change of TEER / transepithelial conductance (G) versus DMSO control” value [7] is reported as “do not alter” and the “change of TEER / transepithelial conductance (G) versus DMSO control” value [8] is reported as “do not alter”.
